Results as given in patent US5478845A, “Piperidine derivatives” (Novo Nordisk A/S, priority 1993, dated 1995).
Structures can show the parent of a compound that is named as a salt.

Assays:
Set-up in all cases: species or system Male Wistar rats
DOPAMINE D2 Receptor = molecular target: T1, DOPAMINE D2 Receptor (Rattus norvegicus, UniProt P61169); experiment: TEST 1: In Vitro Inhibition of DOPAMINE D2 Receptor Binding (3H-Spiroperidol, rat striatum); details: 3H-Spiroperidol (0.05 nM), rat striatum membranes, 20 min. at 37° C.; read-out: TEST 1 IC50 (concentration inhibiting specific binding by 50%)
T1 construct: Male Wistar rats, 150-200 g are decapitated, striatum is removed quickly and weighed; from tissue; host or cells: rat striatum membrane fragments
Description: TEST 1: In Vitro Inhibition of DOPAMINE D2 Receptor Binding
(§1) Radioactive-labelled ligand ^3 H-Spiroperidol is incubated with isolated cell-membrane fragments at 37° C. for a given period of time. Following completed incubation, the incubate is filtered through GF/B filters which are rinsed following filtration to remove unspecifically adhered radioactivity. As opposed to low-molecular compounds, membrane fragments are not rinsed through the filters, the radioactivity bound to the filters is indicative of the amount of ligand bound specifically as well as nonspecifically to the membranes.
The procedure is performed in ice bath. Polytron kinematica is rinsed with milli-Q--H2 O before and after use. Male Wistar rats, 150-200 g are decapitated, striatum is removed quickly and weighed (approx. 50 mg). Striatum is transferred to a centrifuging vial containing 10 ml ice-cold D2 buffer. Homogenization is performed applying polytron kinematica (homogenizer) setting 6 for 20 sec. The homogenizer is rinsed with 10 ml D2 buffer in another centrifuging vial. The 10 ml rinsing buffer is added to the tissue vial. Centrifugation at 18,000 rpm for 10 min. at 4° C. Final pellet is transferred to 1,000×vol. of same buffer. (Ex. 50 mg striatum in 50 ml D2 buffer). Can be stored at 0° C. for at least 4 hours. Note that the tissue must be monogeneous (uniform) before use. If not, brief homogenization is performed. […]

DOPAMINE D1 Receptor = molecular target: T2, DOPAMINE D1 Receptor (Rattus norvegicus, UniProt P18901); experiment: TEST 2: In Vitro Inhibition of DOPAMINE D1 Receptor Binding (3H-SCH 23390, rat striatum); details: 3H-SCH 23390 (0.2 nM), rat striatum membranes, 60 min. at 30° C.; read-out: TEST 2 IC50 (concentration inhibiting specific binding by 50%)
T2 construct: Male Wistar rats, 150-200 g are decapitated; Striatum is removed quickly; from tissue; host or cells: rat striatum membrane fragments
Description: TEST 2: In Vitro Inhibition of DOPAMINE D1 Receptor Binding
Radioactive-labelled ligand ^3 H-SCH 23390 is incubated with isolated cell-membrane fragments in incubation buffer at 30° C. for a given period of time. Following completed incubation, the incubate is filtered through GF/B filters, which are rinsed following filtration to remove unspecifically adhered radioactivity. As opposed to low-molecular compounds, membrane fragments are not rinsed through the filters, the radioactivity bound to the filters indicates the amount of ligand bound specifically as well as nonspecifically to the membranes.
Male Wistar rats, 150-200 g are decapitated. Striatum is removed quickly, weighed (approx. 50 mg) and carefully homogenized in 100×vol. of buffer I applying glass/teflon homogenizer 10 up/down strokes. Ex.: 50 mg striatum is homogenized in […] buffer I. The homogenate is centrifuged at 18,000 rpm for 20 min. at 4° C., and the supernate is decanted. This step is performed three times, and each time the pellet is resuspended and homogenized in 100×vol. of buffer I. Following the third centrifugation, the pellet is suspended in 100×vol. of resuspension buffer and homogenized. The tissue is now ready for use. The tissue is stable at 0° C. for 8 hours.
200 μl test substance/H2 O/blind (cis-flupentixol 2 μM)
Incubation for 60 min. at 30° C.
10 ml of ice-cold 0.9% NaCl is added to the tubes. […]

5HT2-Receptor = molecular target: T3, 5HT2-Receptor (Rattus norvegicus, UniProt P14842); experiment: TEST 3: In Vitro Inhibition of 5HT2-Receptor Binding (3H-Ketanserine, rat frontal cortex); details: 3H-Ketanserine (0.4 nM), rat frontal cortex membranes, 15 min. at 37° C.; read-out: TEST 3 IC50 (concentration inhibiting specific binding by 50%)
T3 construct: Male Wistar rats, 150-200 g are decapitated; Frontal cortex is removed quickly; from tissue; host or cells: rat frontal cortex membrane fragments
Description: TEST 3: In Vitro Inhibition of 5HT2 -Receptor Binding
as §1, with “^3 H-Ketanserine” for “^3 H-Spiroperidol”, “isolated cell membrane” for “isolated cell-membrane”, “GF/B filters,” for “GF/B filters”, “filters indicates” for “filters is indicative of”
The preparation is made in ice bath. Polytron kinematica is rinsed with milli-Q--H2 O before and after use. Male Wistar rats, 150-200 g are decapitated. Frontal cortex is removed quickly and weighed (approx. 200 mg). Frontal cortex is added to centrifuging vial containing 10 ml ice-cold D2 buffer. Homogenization applying polytron kinematica (homogenizer) setting 6 for 20 sec. The homogenizer is rinsed with 10 ml D2 buffer in another centrifuging vial. The 10 ml rinsing buffer is added to the tissue vial. Centrifuged at 18,000 rpm for 10 min. at 4° C. Final pellet is transferred to 125×vol. of same buffer. (Ex 200 mg in 25 ml D2 buffer). Can be stored for approx. 30 min. at 0° C.
25/μl ^3 H-Ketanserine (0.4 nM)
25/μl test substance/H2 O/blind cyproheptadine (2/μM)
Incubation for 15 min. at 37° C. […]

T1 sequence (P61169 whole entry, the tested form may be a part): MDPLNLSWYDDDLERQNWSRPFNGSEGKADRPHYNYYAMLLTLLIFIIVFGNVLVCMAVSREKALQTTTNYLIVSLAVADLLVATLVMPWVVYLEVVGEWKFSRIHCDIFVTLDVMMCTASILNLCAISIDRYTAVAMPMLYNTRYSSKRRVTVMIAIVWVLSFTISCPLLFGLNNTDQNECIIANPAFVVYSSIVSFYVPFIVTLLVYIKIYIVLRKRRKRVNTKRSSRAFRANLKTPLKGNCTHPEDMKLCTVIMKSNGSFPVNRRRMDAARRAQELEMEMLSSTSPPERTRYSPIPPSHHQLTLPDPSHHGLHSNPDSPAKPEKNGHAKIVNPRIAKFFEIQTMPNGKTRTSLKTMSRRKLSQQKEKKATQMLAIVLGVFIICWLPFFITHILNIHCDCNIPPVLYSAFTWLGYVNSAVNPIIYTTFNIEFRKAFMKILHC
T2 sequence (P18901 whole entry, the tested form may be a part): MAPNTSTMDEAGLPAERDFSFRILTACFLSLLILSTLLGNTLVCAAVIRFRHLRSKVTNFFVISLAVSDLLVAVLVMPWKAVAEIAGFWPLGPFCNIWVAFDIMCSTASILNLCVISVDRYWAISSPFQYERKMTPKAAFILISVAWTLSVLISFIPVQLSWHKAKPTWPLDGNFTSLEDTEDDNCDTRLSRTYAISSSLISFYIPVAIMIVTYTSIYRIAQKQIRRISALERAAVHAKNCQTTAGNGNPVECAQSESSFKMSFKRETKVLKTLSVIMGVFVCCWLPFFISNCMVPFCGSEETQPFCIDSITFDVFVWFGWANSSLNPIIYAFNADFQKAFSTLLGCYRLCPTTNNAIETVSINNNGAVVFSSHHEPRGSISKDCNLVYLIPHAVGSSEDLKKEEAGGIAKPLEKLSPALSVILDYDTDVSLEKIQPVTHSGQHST
T3 sequence (P14842 whole entry, the tested form may be a part): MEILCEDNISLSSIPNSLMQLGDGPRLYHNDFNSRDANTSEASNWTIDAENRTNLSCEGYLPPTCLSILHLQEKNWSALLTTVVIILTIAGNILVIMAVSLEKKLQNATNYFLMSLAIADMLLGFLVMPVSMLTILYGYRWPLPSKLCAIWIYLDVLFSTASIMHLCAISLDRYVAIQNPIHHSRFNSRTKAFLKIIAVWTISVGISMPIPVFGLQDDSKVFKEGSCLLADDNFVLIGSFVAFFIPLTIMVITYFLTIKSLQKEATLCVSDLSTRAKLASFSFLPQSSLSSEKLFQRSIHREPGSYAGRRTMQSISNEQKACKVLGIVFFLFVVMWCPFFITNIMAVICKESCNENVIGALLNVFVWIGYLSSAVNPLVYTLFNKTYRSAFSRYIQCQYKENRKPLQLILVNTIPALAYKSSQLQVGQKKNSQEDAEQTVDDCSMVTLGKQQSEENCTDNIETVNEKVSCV

CCN(C(=O)OCCCN1CCC(c2noc3cc(F)ccc23)CC1)c1ccc2c(c1)OCO2 [Example 2, 4-(6-Fluoro-1,2-benzisoxazol-3-yl)-1-(3-(N-ethyl-N-(3,4-methylenedioxyphenyl)carbamoyloxy)propylpiperidine, oxalate]
IC50 (DOPAMINE D2 Receptor): 18 nM | IC50 (DOPAMINE D1 Receptor): 30 nM | IC50 (5HT2-Receptor): 6.7 nM

CN(C(=O)OCCCN1CCC(c2noc3cc(F)ccc23)CC1)c1ccccc1 [Example 3, 4-(6-Fluoro-1,2-benzisoxazol-3-yl) -1-(3-(N-methyl-N-phenylcarbamoyloxy)propyl)piperidine, oxalate]
IC50 (DOPAMINE D2 Receptor): 8.9 nM | IC50 (DOPAMINE D1 Receptor): 43 nM | IC50 (5HT2-Receptor): 6.9 nM
